Key:
[1] = target: α3(2)β4(2)α5 (β4–6–α3 concatamer + α5) (Homo sapiens, UniProt P30926+P32297); assay: two-electrode voltage clamp, Xenopus oocytes; assay type: cell-based
rat α3β4 = rat α3β4 (Rattus norvegicus, UniProt P04757+P12392); assay: two-electrode voltage clamp, Xenopus oocytes; assay type: cell-based
Chain of rat α3β4 (P04757 26-499): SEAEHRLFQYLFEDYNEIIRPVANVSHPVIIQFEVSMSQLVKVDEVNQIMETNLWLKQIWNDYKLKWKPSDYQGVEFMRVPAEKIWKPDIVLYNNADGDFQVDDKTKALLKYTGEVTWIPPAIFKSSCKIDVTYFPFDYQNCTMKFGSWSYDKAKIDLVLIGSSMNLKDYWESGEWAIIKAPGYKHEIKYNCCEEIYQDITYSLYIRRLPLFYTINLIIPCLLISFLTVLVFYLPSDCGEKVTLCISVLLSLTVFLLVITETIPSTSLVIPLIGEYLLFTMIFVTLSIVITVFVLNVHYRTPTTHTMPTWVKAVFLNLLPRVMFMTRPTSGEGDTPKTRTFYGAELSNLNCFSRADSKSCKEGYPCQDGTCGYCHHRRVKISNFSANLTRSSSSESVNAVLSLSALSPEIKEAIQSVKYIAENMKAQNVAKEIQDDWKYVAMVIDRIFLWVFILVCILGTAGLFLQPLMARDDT
Chain of rat α3β4 (P12392 21-495): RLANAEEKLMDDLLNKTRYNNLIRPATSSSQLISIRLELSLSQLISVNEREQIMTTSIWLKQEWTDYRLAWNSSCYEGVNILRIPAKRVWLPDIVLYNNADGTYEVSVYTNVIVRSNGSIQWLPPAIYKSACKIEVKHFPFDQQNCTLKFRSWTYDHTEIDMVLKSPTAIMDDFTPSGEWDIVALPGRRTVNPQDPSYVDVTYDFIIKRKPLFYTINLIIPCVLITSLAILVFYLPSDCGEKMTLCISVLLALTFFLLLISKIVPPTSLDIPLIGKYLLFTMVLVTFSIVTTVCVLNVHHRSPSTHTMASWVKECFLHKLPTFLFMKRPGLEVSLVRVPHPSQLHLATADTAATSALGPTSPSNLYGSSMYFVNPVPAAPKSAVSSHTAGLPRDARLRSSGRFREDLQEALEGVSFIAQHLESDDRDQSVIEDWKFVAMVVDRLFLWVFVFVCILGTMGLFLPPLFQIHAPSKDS

Chain of α3(2)β4(2)α5 (β4–6–α3 concatamer + α5) (P32297 32-505): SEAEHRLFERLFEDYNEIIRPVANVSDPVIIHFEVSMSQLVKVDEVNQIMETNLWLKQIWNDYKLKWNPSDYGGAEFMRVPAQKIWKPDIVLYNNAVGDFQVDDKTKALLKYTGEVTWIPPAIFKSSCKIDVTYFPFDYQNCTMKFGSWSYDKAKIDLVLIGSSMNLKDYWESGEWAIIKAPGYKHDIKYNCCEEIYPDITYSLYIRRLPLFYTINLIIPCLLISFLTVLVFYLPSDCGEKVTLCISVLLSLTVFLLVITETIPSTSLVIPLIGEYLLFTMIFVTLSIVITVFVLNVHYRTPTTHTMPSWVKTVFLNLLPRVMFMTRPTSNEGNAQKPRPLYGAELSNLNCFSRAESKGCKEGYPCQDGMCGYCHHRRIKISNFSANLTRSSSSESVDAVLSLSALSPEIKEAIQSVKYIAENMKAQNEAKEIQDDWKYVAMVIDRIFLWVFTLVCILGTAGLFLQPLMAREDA
Chain of α3(2)β4(2)α5 (β4–6–α3 concatamer + α5) (P30926 22-498): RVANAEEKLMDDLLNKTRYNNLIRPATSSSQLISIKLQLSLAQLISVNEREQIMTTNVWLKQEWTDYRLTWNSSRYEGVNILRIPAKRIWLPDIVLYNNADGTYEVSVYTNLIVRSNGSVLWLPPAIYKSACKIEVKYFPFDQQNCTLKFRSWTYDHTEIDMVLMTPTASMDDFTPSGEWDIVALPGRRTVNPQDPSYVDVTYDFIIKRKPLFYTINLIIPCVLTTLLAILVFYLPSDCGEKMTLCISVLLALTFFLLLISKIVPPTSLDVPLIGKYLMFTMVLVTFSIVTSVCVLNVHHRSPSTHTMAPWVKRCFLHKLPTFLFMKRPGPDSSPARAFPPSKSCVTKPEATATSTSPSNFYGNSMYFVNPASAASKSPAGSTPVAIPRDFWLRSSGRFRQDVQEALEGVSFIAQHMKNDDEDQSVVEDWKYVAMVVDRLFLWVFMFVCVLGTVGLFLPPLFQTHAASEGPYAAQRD
Chain of α3(2)β4(2)α5 (β4–6–α3 concatamer + α5) (P30532 23-468 partner): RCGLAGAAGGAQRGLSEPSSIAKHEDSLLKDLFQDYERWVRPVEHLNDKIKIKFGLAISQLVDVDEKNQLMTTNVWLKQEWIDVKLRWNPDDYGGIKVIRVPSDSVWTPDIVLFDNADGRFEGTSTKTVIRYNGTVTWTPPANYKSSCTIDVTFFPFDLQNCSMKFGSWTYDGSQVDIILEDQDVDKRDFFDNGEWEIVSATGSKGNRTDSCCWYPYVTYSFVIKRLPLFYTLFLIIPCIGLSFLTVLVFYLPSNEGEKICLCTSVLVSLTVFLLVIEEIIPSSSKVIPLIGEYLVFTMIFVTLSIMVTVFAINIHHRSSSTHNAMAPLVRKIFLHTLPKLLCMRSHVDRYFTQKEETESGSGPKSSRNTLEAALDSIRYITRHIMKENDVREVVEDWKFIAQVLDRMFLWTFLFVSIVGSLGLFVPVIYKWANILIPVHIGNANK

Row | SMILES | IC50 [1] [µM] | EC50 (rat α3β4) [µM]
1 | COc1ccc(C=C2CCCN=C2c2cccnc2)c(OC)c1 [GTS-21, 3-(2,4dimethoxybenzylidene)anabaseine] | 9.17 ± 1.08 | –
2 | O=c1cccc2n1C[C@@H]1CNC[C@H]2C1 [cytisine] | – | 520 ± 50
3 | c1cnc2cc3c(cc2n1)C1CNCC3C1 [varenicline] | – | 28 ± 3.2

— article PMC3392537 (Neuropharmacology, 2012)
